# Paper PMC8360864, “Benzylmalonyl-CoA dehydrogenase, an enzyme involved in bacterial auxin degradation” (Archives of Microbiology, 2021)
# B1: Benzylmalonyl-CoA dehydrogenase (IaaF) (Aromatoleum aromaticum EbN1) (protein)
# chain: MDFDLTDEQRAIQDTFARFSDERIAPQAAALDEARAFPRALFRELAELGFFGMRYPESVGGSGLALSEFCLALSEVARGSMSLAGAVAMQSLMGTKFLQLLGNADIVERLFKPALRGDRIGAICMTEPNAGSDLESIATTATRVDGGYVINGQKTWITSAPVADFFTVFARAGDEKKLTIFLVEKDVPGITVGREIHKMGVWALPTSEVAFDGCFVPDSHRLSKEEGDGEGHLKKTLAEIRIITGAMALGVARAALFAAVRYAGERKQFGKPINRFQAIQLKLADMATGLEAATTLVHRAAWLCDMKRPHHKEAAMAKLFATETAAGICDDAARVLASYGYAMEYPVQRYLRDVRFTLIGGGTSEILKLVIAKEVSS
# notes: fusion protein of IaaF with a N-terminal Strep-tag
# Columns and labels:
# [1] = biological target: T1, Benzylmalonyl-CoA dehydrogenase (IaaF) (Aromatoleum aromaticum, UniProt Q5P5Z9); experiment: product formation by HPLC and UV-Vis with purified enzyme; type: biochemical
# T1 construct: fusion protein of IaaF with a N-terminal Strep-tag
# T1 sequence (Q5P5Z9 1-377): B1 chain
# purified protein = substrate: CC(C)(COP(=O)(O)OP(=O)(O)OC[C@H]1O[C@@H](n2cnc3c(N)ncnc32)[C@H](O)[C@@H]1OP(=O)(O)O)[C@@H](O)C(=O)NCCC(=O)NCCSC(=O)C(Cc1ccccc1)C(=O)O; experiment: purified protein; type: biochemical, Aromatoleum aromaticum; settings: FAD active site (GGG motif replacing YEG) proposed
Molecule,product formation by HPLC and UV-Vis with purified enzyme [1],Km (purified protein) [µM]
CC(C)(COP(=O)(O)OP(=O)(O)OC[C@H]1O[C@@H](n2cnc3c(N)ncnc32)[C@H](O)[C@@H]1OP(=O)(O)O)[C@@H](O)C(=O)NCCC(=O)NCCSC(=O)/C=C/c1ccccc1 [cinnamoyl-CoA],formation of a new CoA-thioester over time which was identified as cinnamoyl-CoA by its UV–Vis spectrum,
B1,,1.6 ± 0.3
